Test results reported in patent US20250034154A1, “SALTS AND SOLID FORMS OF A COMPOUND THAT MODULATES IRAK4” (Gilead Sciences, Inc., priority 2023, published 2025).

Assay: Dynamic vapor sorption (DVS) hygroscopicity
Format: physicochemical
Procedure: Hygroscopicity was studied using dynamic vapor sorption (DVS, TA Q5000 SA, TA Instruments, New Castle, DE or DVS, DVS Intrinsic, Surface Measurement Systems, London, UK). A sample (2-20 mg) was placed in an aluminum DVS pan and loaded on the sample side of the twin pan balance. The water sorption and desorption were studied as a function of relative humidity (RH) at 25° C. In 10% RH increments, the relative humidity was increased from 5% RH to 95% RH and then decreased back to 5%. […] Data analysis was performed using Universal Analysis 2000 Version 4.7A (TA Instruments, New Castle, DE) for TA DVS runs and Microsoft Excel for SMS DVS runs.

C[C@H](C#N)Nc1cc(-c2ccc3cc(C#N)cnn23)ncc1C(=O)NC[C@@H](F)C(C)(C)O [Form IV, 4-(((R)-1-cyanoethyl)amino)-6-(3-cyanopyrrolo[1,2-b]pyridazin-7-yl)-N—((R)-2-fluoro-3-hydroxy-3-methylbutyl)nicotinamide]
water absorbed (DVS analysis) (25° C. and 95% RH): less than 0.1 wt %
hygroscopicity (DVS analysis) (25° C., up to 95% RH): non-hygroscopic
form change by XRPD analysis of the sample post DVS analysis (post DVS): no form change
